Consider 1 molecule from patent US20210161837A1, “METHODS FOR TREATING CANCER WITH RORGAMMA INHIBITORS” (The Regents of the University of California, priority 2016, published 2021).

For one assay, the system named is 22Rv1 xenografts. Description: 22Rv1 xenograft tumor growth. The format is in vivo, mouse. The following applies: 5 mg/kg, i.p., 5 times a week, 21-24 days.
Assay [1] deals with TNBC cells including MDA-MB468, MDA-MB231, BT20, SUM149 and HCC1937. Description: Cell viability (CellTiter-GLO), 4 days, TNBC cells. The following applies: Homo sapiens, 96 h. The format is cell-based. The protocol:
(§1) For cell viability, cells were seeded in 96-well plates at 1500-2500 cells per well (optimum density for growth, depending on the specific cell line) in a total volume of 100 μl media. Serially diluted compounds in 100 μl of media were added to the cells 12 hours later. After 4 days of incubation, Cell-Titer GLO reagents (Promega) were added and luminescence was measured on GLOMAX microplate luminometer (Promega), according to the manufacturer's instructions. All experimental points were set up as sextuplicate as biological replication and the entire experiments were repeated three times. The data are presented as percentage of viable cells with vehicle treated cells set as 100. The estimated in vitro IC50 values were calculated using GraphPad Prism 6 software.

The next assay deals with LNCaP cells. Put plainly: Cell viability (CellTiter-GLO), 4 days. It counts as cell-based. Particulars: Homo sapiens, read-out: inhibitory potency (growth inhibition). The protocol: (a&b) C4-2B and 22Rv1 cell proliferation after the RORγ antagonist treatment. Cells were seeded in 6-well plates and counted after cells were treated with indicated concentrations of RORγ antagonists for 0, 2, 4 and 6 days by Coulter counter. […] (e) representative images of TUNEL positive cells treated with vehicle or the antagonist (5 μM) in 22Rv1 cells are shown. […] Three days later, cells were harvested for immunoblotting with indicated antibodies.
LNCaP, C4-2B, 22Rv, PC-3, and PC346C prostate cancer cells were cultured in RPMI1640, VCaP, HEK293T and human fibroblast IMR90 cells were in DMEM, LAPC-4 was in Iscove's MEM (all from Corning), and RWPE-1 and PZ-HPV-7 were in Keratinocyte Serum Free Medium (K-SFM) (Invitrogen) with the supplements. All the culture media except for RWPE-1 and PZ-HPV-7 were supplemented with 10% FBS (Hyclone) except indicated otherwise. […]
For cell viability, cells were seeded in 96-well plates at 1500-2500 cells per well (optimum density for growth, depending on the specific cell line) in a total volume of 100 μl media. […] After 4 days of incubation, Cell-Titer GLO reagents (Promega) were added and luminescence was measured on GLOMAX microplate luminometer (Promega), according to the manufacturer's instructions. […] The estimated in vitro IC50 values were calculated using GraphPad Prism 6 software.
In general terms: In ATP-based viability assays light output follows the ATP content of the culture.

In assay [2] the test system is gastric cancer KATO III cells. Put plainly: Cell viability (Cell-Titer GLO), 4 days, gastric cancer cells. It counts as cell-based, human. How it is done:
Experiments were independently performed three times.
as §1, with “100.” for “100. The estimated in vitro IC50 values were calculated using GraphPad Prism 6 software.”

Assay [3] has as its system endogenous AR expression in RWPE1 and PZ-HPV7 cells. Put plainly: Immunoblotting of AR expression in non-malignant prostate epithelial cells. It counts as cell-based, human. How it is done:
Immunoblotting analysis of RORγ and AR expression in non-malignant, human prostate epithelial RWPE1 and PZ-HPV7 cells within indicated treatments is shown.
(§2) Total RNA was isolated from cells in 6-well or 10-cm plates or from xenograft tumors, and the cDNA was prepared, amplified and measured in the presence of SYBR as described in Yang, P., et al., Molecular and cellular biology 32, 3121-3131 (2012). Briefly, the fluorescent values were collected and a melting curve analysis was performed. Fold difference was calculated as described previously Yang, P., et al. (see, id). The experiments were performed at least three times with data presented as mean values±s.d. Cell lysates were analyzed by immunoblotting with antibodies specifically recognizing RORγ, AR, AR-V7 and the indicated proteins.
For orientation: A western blot detects proteins with antibodies after separation by electrophoresis.

For assay [4], the system named is OVCAR420, T24, ECC1, T98G, SUDHL4, SUDHL6, HCT116 and docetaxel-resistant C4-2B cells. Put plainly: Cell viability (CellTiter-GLO), 4 days, further cancer types. The format is cell-based. The following applies: Homo sapiens, 96 h, ovarian, bladder, endometrial, glioblastoma, DLBCL, colon.
The next assay deals with MCF-7-C6. Description: Growth and survival of radiation-resistant breast cancer cells. The following applies: radiation-resistant MCF-7-C6. The format is cell-based, human.
In a further assay the test system is AR and AR-V7 expression. Description: Immunoblotting and qRT-PCR of AR and AR-V7 expression in C4-2B and VCaP cells. The format is cell-based, human. The protocol:
Data shown are mean±s.d. Significance was calculated using Student's t-test. *p<0.05, **p<0.01.
as §2

The test system of the next assay is AR expression. Description: Immunoblotting of AR expression in 22Rv1, LAPC4 and PC346C cells. It counts as cell-based, human. Particulars: 22Rv1, LAPC4, PC346C cells, 72 hours. How it is done:
as §2

The next assay concerns C4-2B xenografts. Description: C4-2B xenograft tumor growth. The format is in vivo, mouse. The following applies: 20 mg/kg, i.p., 5 times a week, 21-24 days.
The test system of assay [5] is SUM159 orthotopic xenograft tumors. Description: TNBC SUM159 orthotopic xenograft tumor growth in SCID mice. The format is in vivo, mouse. Particulars: 5 mg/kg, i.p., 5 times per week, 45 days. The protocol: Orthotopic xenograft tumor models and chemical compound treatments: Four-week-old female SCID C.B17 mice (for TNBC SUM159 cell lines) were purchased from Harlan Inc. For establishing tumors, 2×10^6 cells were suspended in total of 100 μL PBS/Matrigel (1:1) and implanted orthotopically into the 4th inguinal mammary fat pads at both sides. Animal group size of six or more was estimated to have a high statistical power, based on power calculation (www.biomath.info/pgwer/) and 20 previous studies involving the same xenograft models. When the tumor volume was approximately 50 mm^3, the mice were randomized and then treated intraperitoneally (i.p.) with 100 μl of vehicle or RORγ inhibitors F18/No. 37, 5 mg/kg; GSK805, 5 mg/kg; GNE3500, 5 mg/kg. (in a formulation of 15% Cremophor EL, Calbiochem, 82.5% PBS, and 2.5% DMSO) for five times per week. Tumor growth was monitored by calipers with volume calculated using the equation: π/6 (length×width^2). Mouse body weight during the course of the study was also monitored. At the end of the studies, mice were killed and tumors were dissected and weighed.

Take `O=C(Cc1ccccc1[N+](=O)[O-])Nc1ccc(-c2ccc(C(O)(C(F)(F)F)C(F)(F)F)cc2F)cc1` [XY018, N-(2′-fluoro-4′-(1,1,1,3,3,3-hexafluoro-2-hydroxypropan-2-yl)-[1,1′-biphenyl]-4-yl)-2-(2-nitrophenyl)acetamide]: the tumor growth inhibition entry in the assay on 22Rv1 xenografts and with C4-2B xenografts was “strong tumor growth inhibition” throughout. The IC50 in assay [1] is 0.5 to 3 µM; in the assay on LNCaP cells it was 2.1 µM; in assay [4], below 3.5 µM. The “inhibition of growth and survival” value in [2] is “strongly inhibited the growth and survival”; with MCF-7-C6 it was “potently inhibiting the growth and survival”. For the same molecule, the “effect on endogenous AR expression in non-malignant cells” value in assay [3] was “did not have any significant effect”. In addition, the “AR and AR-V7 expression” value in the assay with AR and AR-V7 expression was “inhibited by XY018 in dose-dependent manner”. Also, the AR expression result in the assay with AR expression is “potent does dependent XY018 inhibition of AR expression”. For the same molecule, the “orthotopic tumor growth inhibition” value in [5] was “effectively inhibited the orthotopic TNBC tumor growth”.
